Experimental data taken from ChEMBL document CHEMBL1150740, “Studies on inhibitors of skin-tumor promotion, I. Inhibitory effects of triterpenes from Euptelea polyandra on Epstein-Barr virus activation” (J Nat Prod, 1987).

Columns and labels:
Assay type in all cases: cell-based
Raji [1] = test: Inhibition of TPA-induced EBV-early antigen activation in human Raji cells assessed as early antigen activation at 5000 mol ratio after 48 hrs relative to TPA; set-up: scale not given: the % may be the effect or the level left; settings: human gammaherpesvirus 4
Raji [2] = test: Inhibition of TPA-induced EBV-early antigen activation in human Raji cells assessed as early antigen activation at 1000 mol ratio after 48 hrs relative to TPA; set-up: scale not given: the % may be the effect or the level left; settings: human gammaherpesvirus 4
Raji [3] = test: Inhibition of TPA-induced EBV-early antigen activation in human Raji cells assessed as early antigen activation at 100 mol ratio after 48 hrs relative to TPA; settings: human gammaherpesvirus 4
Raji [4] = test: Inhibition of TPA-induced EBV-early antigen activation in human Raji cells assessed as early antigen activation at 10 mol ratio after 48 hrs relative to TPA; settings: human gammaherpesvirus 4
Raji [5] = test: Inhibition of EBV-early antigen activation in human Raji cells assessed as early antigen activation at 1 uM ratio after 48 hrs; set-up: scale not given: the % may be the effect or the level left
[6] = Cytotoxicity against human Raji cells assessed as cell viability at 5000 mol ratio after 48 hrs relative to TPA; settings: read-out: Activity
[7] = Cytotoxicity against human Raji cells assessed as cell viability at 1000 mol ratio after 48 hrs relative to TPA; settings: read-out: Activity
[8] = Cytotoxicity against human Raji cells assessed as cell viability at 100 mol ratio after 48 hrs relative to TPA; settings: read-out: Activity
[9] = Cytotoxicity against human Raji cells assessed as cell viability at 10 mol ratio after 48 hrs relative to TPA; settings: read-out: Activity

Compound	Activity (Raji [1]) [%]	Activity (Raji [2]) [%]	EBV early antigen activation relative to TPA (Raji [3]) [%]	EBV-EA activation relative to TPA (Raji [4]) [%]	Activity (Raji [5]) [%]	viability at 48 h, 5000 mol ratio relative to TPA [6] [%]	viability at 48 h, 1000 mol ratio relative to TPA [7] [%]	viability at 48 h, 100 mol ratio relative to TPA [8] [%]	viability at 48 h, 10 mol ratio relative to TPA [9] [%]
C=C(C)[C@@H]1CC[C@]2(CO)CC[C@]3(C)[C@H](CC[C@@H]4[C@@]5(C)CC[C@H](O)C(C)(C)[C@@H]5CC[C@]43C)[C@@H]12 [BETULIN]	0	100	100	100	1.6	80	100	100	100
CC1(C)CC[C@]2(CO)CC[C@]3(C)C(=CC[C@@H]4[C@@]5(C)CC[C@H](O)C(C)(C)[C@@H]5CC[C@]43C)[C@@H]2C1 [ERYTHRODIOL]	0	19.3	71.7	100	0	10	50	> 80	100
C=C(C)[C@@H]1CC[C@]2(C)CC[C@]3(C)[C@H](CC[C@@H]4[C@@]5(C)CC[C@H](OC(C)=O)C(C)(C)[C@@H]5CC[C@]43C)[C@@H]12 [LUPENYL ACETATE]	0	81.8	100	100	0	60	80	100	100
COC(=O)[C@]12CCC(C)(C)C[C@H]1C1=CC[C@@H]3[C@@]4(C)C[C@@H](O)[C@H](O)C(C)(C)[C@@H]4CC[C@@]3(C)[C@]1(C)CC2 [MASLINIC ACID METHYL ESTER]	0	65.6	100	100	0	0	80	100	100
CC1(C)CC[C@]2(C(=O)O)CC[C@]3(C)C(=CC[C@@H]4[C@@]5(C)C[C@@H](O)[C@H](O)C(C)(C)[C@@H]5CC[C@]43C)[C@@H]2C1 [MASLINIC ACID]	0	0	65.6	100	0	0	0	70	100
C=C(C)[C@@H]1CC[C@]2(C(=O)OC)CC[C@]3(C)[C@H](CC[C@@H]4[C@@]5(C)CC[C@H](O)C(C)(C)[C@@H]5CC[C@]43C)[C@@H]12 [METHYL BETULINATE]	0	71.5	100	100	0	80	> 80	100	100
COC(=O)[C@]12CCC(C)(C)C[C@H]1C1=CC[C@@H]3[C@@]4(C)CC[C@H](O)C(C)(C)[C@@H]4CC[C@@]3(C)[C@]1(C)CC2 [METHYL OLEANOLATE]	0	29.5	46.3	100	0	0	50	80	100
CC1(C)CC[C@]2(C(=O)O)CC[C@]3(C)C(=CC[C@@H]4[C@@]5(C)CC[C@H](O)C(C)(C)[C@@H]5CC[C@]43C)[C@@H]2C1 [OLEANOLIC_ACID]	0	30	80	100	2.3	20	60	> 80	100
